From ChEMBL document CHEMBL2177022, “Novel acidic 11β-hydroxysteroid dehydrogenase type 1 (11β-HSD1) inhibitor with reduced acyl glucuronide liability: the discovery of 4-[4-(2-adamantylcarbamoyl)-5-tert-butyl-pyrazol-1-yl]benzoic acid (AZD8329)” (J Med Chem, 2012)

Experiments:
[1] = Percentage unbound in rat plasma at 37 degC by equilibrium dialysis method; format: ADME, cell-free
[2] = Oral bioavailability in rat; format: ADME, organism-based; conditions: in vivo
in vivo = conditions: rat
[3] = Lipophilicity, log D at pH 7.4 by shake flask method; conditions: buffer
[4] = Intrinsic clearance in rat hepatocytes assessed per 10^6 cells
[5] = Inhibition of N-terminal 6-His tagged full length cynomolgus monkey 11betaHSD1 incubated for 25 mins by HTRF assay; set-up: species or system Macaca fascicularis
[6] = Drug metabolism in bile duct cannulated rat bile assessed as oxidative metabolism level during 0 to 6 hrs post dose by metabolism-ID study; format: ADME; conditions: in vivo
[7] = Drug metabolism in bile duct cannulated rat bile assessed as ratio of glucuronidation to oxidative metabolism level during 0 to 6 hrs post dose by metabolism-ID study; format: ADME; conditions: in vivo
Hepatocyte [8] = experiment: Drug metabolism in human hepatocytes assessed as ratio of glucuronidation to oxidative metabolism level by metabolism-ID study; format: ADME, cell-based
[9] = Drug metabolism in bile duct cannulated rat urine assessed as oxidative metabolism level during 0 to 6 hrs post dose by metabolism-ID study; format: ADME, tissue-based; conditions: in vivo
[10] = Stability in bile duct cannulated rat bile assessed as parent compound remaining measured during 0 to 6 hrs post dose; format: ADME; conditions: in vivo
[11] = Drug metabolism in dog hepatocytes assessed as oxidative metabolism level by metabolism-ID study; format: ADME, cell-based, Canis lupus familiaris, Hepatocyte
[12] = Drug metabolism in dog hepatocytes assessed as ratio of glucuronidation to oxidative metabolism level by metabolism-ID study; format: ADME, cell-based, Canis lupus familiaris, Hepatocyte
Hepatocyte [13] = experiment: Drug metabolism in rat hepatocytes assessed as ratio of glucuronidation to oxidative metabolism level by metabolism-ID study; format: ADME, cell-based
[14] = Drug metabolism in bile duct cannulated rat urine assessed as ratio of glucuronidation to oxidative metabolism level during 0 to 6 hrs post dose by metabolism-ID study; format: ADME, tissue-based; conditions: in vivo
[15] = Inhibition of N-terminal 6-His tagged full length dog 11betaHSD1 incubated for 25 mins by HTRF assay; set-up: species or system Canis lupus familiaris
[16] = Stability in bile duct cannulated rat urine assessed as parent compound remaining measured during 0 to 6 hrs post dose; format: ADME, tissue-based; conditions: in vivo

Compound	fraction unbound [1]	bioavailability [2]	clearance (in vivo)	logD [3]	hepatocyte CLint [4]	other results
CCCSc1c(C(=O)NC2CCCCC2)cnn1-c1ccc(C(=O)O)cc1	0.04	72%	0.27 L/h/kg	0.6	< 3 µL/min/1e6 cells	
CCCSc1c(C(=O)N[C@H]2C3CC4CC2C[C@](S(C)(=O)=O)(C4)C3)cnn1-c1ccc(C(=O)O)cc1	0.134	7%		< 0.5		
CCCSc1nc(N2CCC[C@@H](CC(=O)O)C2)ccc1C(=O)NC1CCCCC1 [AZD-4017]						IC50 [5]: 0.029 µM; Drug metabolism [6]: 10%; Ratio [7]: 7.5; Ratio (Hepatocyte [8]): 6; Drug metabolism [9]: 28%; Stability [10]: 15%; Drug metabolism [11]: 13%; Ratio [12]: 4.1; Ratio (Hepatocyte [13]): 2.1; Ratio [14]: 2.4; IC50 [15]: 3.77 µM; Stability [16]: 4%
CCCSc1c(C(=O)N(C)C2CCCCC2)cnn1-c1ccc(C(=O)O)cc1	0.025	26%	0.486 L/h/kg	0.6	26 µL/min/1e6 cells	
O=C(O)c1ccc(-n2ncc(C(=O)NC3C4CC5CC(C4)CC3C5)c2C2CCC2)cc1 (centres undefined)	0.012	> 100%	0.078 L/h/kg		< 3 µL/min/1e6 cells	
O=C(O)c1ccc(-n2ncc(C(=O)NC3C4CC5CC(C4)CC3C5)c2SC2CCCC2)cc1 (centres undefined)	0.0015	57%	0.198 L/h/kg	2.6	14 µL/min/1e6 cells	
CCCSc1c(C(=O)NC2CCCCC2)cnn1-c1cccc(C(=O)O)c1	0.02	> 100%	1.02 L/h/kg	0.7	17 µL/min/1e6 cells	
O=C(O)c1ccc(-n2ncc(C(=O)NC3C4CC5CC(C4)CC3C5)c2C2CCCC2)cc1 (centres undefined)	0.004	> 100%		1.7		
CCSc1c(C(=O)NC2C3CC4CC(C3)CC2C4)cnn1-c1ccc(C(=O)O)cc1 (centres undefined)	0.0131	65%	0.18 L/h/kg	1.5	6 µL/min/1e6 cells	
O=C(O)c1ccc(-n2ncc(C(=O)NC3C4CC5CC(C4)CC3C5)c2C2CC2)cc1 (centres undefined)	0.045	51%	0.84 L/h/kg	0.9	15 µL/min/1e6 cells	
Cc1c(C(=O)NC2C3CC4CC(C3)CC2C4)cnn1-c1ccc(C(=O)O)cc1 (centres undefined)	0.127	> 100%	0.48 L/h/kg		< 3 µL/min/1e6 cells	
CCCSc1ncccc1C(=O)NC1CCCCC1				3.2		
O=C(O)c1ccc(-n2ncc(C(=O)NC3C4CC5CC(C4)CC3C5)c2SC2CCCCC2)cc1 (centres undefined)	0.0013	82%	0.216 L/h/kg	3	9.4 µL/min/1e6 cells	

Continued, in another order:

fraction unbound [1]	bioavailability [2]	clearance (in vivo)	logD [3]	hepatocyte CLint [4]	Compound	other results
0.285	54%	0.78 L/h/kg	< 0.5	< 2 µL/min/1e6 cells	CCCSc1c(C(=O)N[C@H]2C3CC4CC2C[C@](OC)(C4)C3)cnn1-c1ccc(C(=O)O)cc1	
0.132	0%		3		CCCSc1c(C(=O)NC2CCCCC2)cnn1C	
0.0336	64%	0.66 L/h/kg	1.2	< 2 µL/min/1e6 cells	CSc1c(C(=O)NC2C3CC4CC(C3)CC2C4)cnn1-c1ccc(C(=O)O)cc1 (centres undefined)	
0.105	10%	1.2 L/h/kg	-0.4	< 2 µL/min/1e6 cells	CCCSc1c(C(=O)N[C@H]2C3CC4CC2C[C@](O)(C4)C3)cnn1-c1ccc(C(=O)O)cc1	
0.06	> 100%		0.9		CCc1c(C(=O)NC2C3CC4CC(C3)CC2C4)cnn1-c1ccc(C(=O)O)cc1 (centres undefined)	
0.045	> 100%				O=C(O)c1ccc(-n2ncc(C(=O)NC3C4CC5CC(C4)CC3C5)c2C(F)(F)F)cc1 (centres undefined)	
0.036	53%	0.132 L/h/kg	1.2	< 2 µL/min/1e6 cells	CC(C)c1c(C(=O)NC2C3CC4CC(C3)CC2C4)cnn1-c1ccc(C(=O)O)cc1 (centres undefined)	
0.005	45%		1.8		CCCSc1c(C(=O)NC2C3CC4CC(C3)CC2C4)cnn1-c1ccc(C(=O)O)cc1 (centres undefined)	
0.107				6.6 µL/min/1e6 cells	O=C(O)c1ccc(-n2cc(C(=O)NC3C4CC5CC(C4)CC3C5)cn2)cc1 (centres undefined)	
	49%	2.58 L/h/kg	1.4	58 µL/min/1e6 cells	CCCSc1c(C(=O)NC2CCCCC2)cnn1[C@H]1CC[C@@H](C(=O)O)CC1	
0.033	> 100%	1.14 L/h/kg	1.1	11 µL/min/1e6 cells	CC1(c2c(C(=O)NC3C4CC5CC(C4)CC3C5)cnn2-c2ccc(C(=O)O)cc2)CC1 (centres undefined)	
0.026	40%	0.564 L/h/kg	1.2	18 µL/min/1e6 cells	CCCSc1c(C(=O)N[C@H]2C3CC4CC2C[C@](OC(F)F)(C4)C3)cnn1-c1ccc(C(=O)O)cc1	
0.093	100%	0.15 L/h/kg	1	7.5 µL/min/1e6 cells	CCCSc1c(C(=O)NC2CCCCC2)cnn1[C@H]1CC[C@H](C(=O)O)CC1	
